Data as given in patent EP0752477A2, “Expression vectors that produce steroid receptors, steroid receptor chimera, screening assays for steroid receptors and clinical assays using synthesized receptors and receptor vectors” (BAYLOR COLLEGE OF MEDICINE, priority 1990, dated 1991).

Assays:
[1] = target: T1, chicken progesterone receptor (Gallus gallus, UniProt P07812); assay: β-Galactosidase transcription assay in yeast with expression plasmid and reporter YRpP1; assay type: cell-based
T1 construct: ubiquitin (N, cleaved yes); expressed in transfected cells
T1 sequence (P07812 1-786): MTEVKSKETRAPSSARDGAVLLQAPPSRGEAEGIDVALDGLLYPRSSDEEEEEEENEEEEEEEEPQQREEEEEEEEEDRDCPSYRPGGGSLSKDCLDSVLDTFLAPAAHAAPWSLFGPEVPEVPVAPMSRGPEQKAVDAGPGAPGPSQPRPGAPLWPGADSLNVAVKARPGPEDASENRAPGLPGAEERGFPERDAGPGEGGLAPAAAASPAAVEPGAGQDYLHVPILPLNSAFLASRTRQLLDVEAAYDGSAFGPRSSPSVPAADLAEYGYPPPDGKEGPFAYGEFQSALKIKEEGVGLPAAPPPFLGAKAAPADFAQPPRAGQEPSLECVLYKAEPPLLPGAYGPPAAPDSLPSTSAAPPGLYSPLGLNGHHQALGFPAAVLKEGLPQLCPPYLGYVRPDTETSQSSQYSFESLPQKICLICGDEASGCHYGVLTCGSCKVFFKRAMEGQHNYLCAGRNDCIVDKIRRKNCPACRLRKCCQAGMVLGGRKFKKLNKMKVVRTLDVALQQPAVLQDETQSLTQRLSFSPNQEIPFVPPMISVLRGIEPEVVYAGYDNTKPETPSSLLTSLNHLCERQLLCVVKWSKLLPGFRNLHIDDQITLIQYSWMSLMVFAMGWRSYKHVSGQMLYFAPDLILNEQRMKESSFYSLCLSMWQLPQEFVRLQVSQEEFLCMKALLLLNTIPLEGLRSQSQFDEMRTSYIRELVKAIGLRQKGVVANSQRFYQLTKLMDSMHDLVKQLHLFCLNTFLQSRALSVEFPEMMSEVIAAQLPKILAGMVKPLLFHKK
Protocol: A reporter YRpP1 containing the progesterone responsive sequence and the β-Galactosidase gene was used to quantitate the transcriptional activity of the chicken progesterone receptor. Yeast containing both the expression and the reporter plasmids was grown overnight in minimal media supplemented with 2% glucose. […] Four sets of tubes were inoculated (a) no additions, (b) +100µM CuSO4, (c) +0.1µM progesterone, and (d) +100µM CuSO4, 0.1µM progesterone. When the cells reached mid-log phase they were harvested by centrifugation. The cells were lysed using glass beads and the cytosol was clarified by centrifugation. Aliquots (1-100µg) of protein were assayed for β-Galactosidase activity according to the method of Miller and expressed as units/mg protein.

[2] = tested on: human estrogen receptor; assay: Estrogen responsive reporter assay in yeast, wild type estrogen receptor; assay type: cell-based; conditions: ER
From the text: (§1) The mechanism by which steroid receptors enhance transcription is unclear, however, there is a clear correlation between the ability of the receptor to activate transcription and the presence of an acidic activation region in the protein. […] As illustrated in Fig. 9 this was accomplished for the human estrogen receptor by digestion of the yeast expression vector for estrogen, YEpE2 with Notl, filling in the ends with T4 polymerase and religating in the presence of the filled in Rsal - Sall fragment of the VP16 protein. After the receptor is inserted in the proper orientation it produces a chimeric receptor which includes within its reading frame a VP16 activating domain.
(§2) A comparison of the wild type estrogen receptor and the modified receptor was made in yeast using the estrogen responsive reporters.

[3] = tested on: Super ER; assay: Estrogen responsive reporter assay in yeast, modified (super) estrogen receptor with VP16 activating domain; assay type: cell-based, human; conditions: +CuSO4, no E2
From the text: as §1, §2

[4] = tested on: YRpEG3 reporter; assay: Activity of the YRpEG3 reporter alone (no receptor); assay type: cell-based, Saccharomyces cerevisiae
Protocol: The transcriptional activity of the receptor was assayed under similar conditions to Example 15 except that the cells were grown in glucose (Fig. 1B). In the presence of glucose, the transcriptional activity of GAL4 is completely repressed because the GAL4 protein is incapable of binding to its response element. Under these conditions estrogen receptor activation of the GAL4-ERE can be monitored without interference. […] At all concentrations of receptor the activation of transcription was entirely hormone dependent.

[5] = tested on: GAL4; assay: Activation of GAL4/ERE binding site chimera reporters by galactose in BJ3505; assay type: cell-based, Saccharomyces cerevisiae; conditions: grown in galactose
From the text: It is known that the estrogen receptor binds to and activates gene transcription through a 13 bp palindromic sequence (ERE). Placing ERE upstream of the promoter in a CYC-l-β-gal fusion vector and transforming into Saccharomyces cerevisiae results in a reporter which responded to estrogen in a receptor-dependent manner. To monitor the binding of the estrogen receptor to the ERE sequence in vivo, an interference assay was developed. An oligonucleotide containing a GAL4 (17 mer) recognition sequence and an ERE was constructed such that the two sites would overlap by 1 base. In this way only ER or GAL4 but not both molecules could occupy the same site. This sequence was cloned as a single, double, or triple copy distal to the promoter in a yeast iso-l-cytochrome C reporter (PC3).
These plasmids were introduced into yeast and assayed for transcriptional activity in the presence of glucose and galactose. The results are shown in Table I and reveal that galactose induced transcription of the reporter gene, and activity increased dramatically as the number of GAL sites increased. When grown in glucose, transcriptional activity was completely repressed.

O=S(=O)([O-])[O-].[Cu+2] [CuSO4]
β-Galactosidase activity ([1]; +100µM CuSO4, no progesterone): <500 Miller units | EC50 ([1]; CUP1 promoter driven receptor expression, other data, read-out: concentration sufficient to activate half maximally this transcription unit): 1000 nM | activity of estrogen responsive reporter ([2]; +CuSO4, no E2): 473 Miller units per milligram of protein | activity of estrogen responsive reporter [3]: 4133 Miller units per milligram of protein | direct effects on the activity of the YRpEG3 reporter alone [4]: no direct effects

C[C@]12CC[C@@H]3c4ccc(O)cc4CC[C@H]3[C@@H]1CC[C@@H]2O [E2, estradiol]
activity of estrogen responsive reporter ([2]; +CuSO4+E2): 4344 Miller units per milligram of protein | activity of estrogen responsive reporter ([2]; +E2): 5760 Miller units per milligram of protein | direct effects on the activity of the YRpEG3 reporter alone [4]: no direct effects

O=C[C@H](O)[C@@H](O)[C@@H](O)[C@H](O)CO [Galactose, galactose]
TRANSCRIPTIONAL ACTIVITY ([5]; reporter YRpEG1, 1 binding site): 860 | TRANSCRIPTIONAL ACTIVITY ([5]; reporter YRpEG2, 2 binding sites): 2,350 | TRANSCRIPTIONAL ACTIVITY ([5]; reporter YRpEG3, 3 binding sites): 16,500

CC(=O)[C@H]1CC[C@H]2[C@@H]3CCC4=CC(=O)CC[C@]4(C)[C@H]3CC[C@]12C [Prog., progesterone, reference compound]
β-Galactosidase activity ([1]; +0.1µM progesterone, no CuSO4): <500 Miller units | β-Galactosidase activity ([1]; +100µM CuSO4, 0.1µM progesterone): 50,000 Miller units

COc1ccc2c(c1)CCC(c1ccccc1)=C2c1ccc(OCCN2CCCC2)cc1 [nafoxidine]
direct effects on the activity of the YRpEG3 reporter alone [4]: no direct effects
